Reference: patent publication US20130005710A1, “AMINOPYRIDINE DERIVATIVE” (priority 2009, published 2013)

System: rat mixed glial culture
Experiment: Neurogenesis promoting effect in rat mixed glial culture (neuronal differentiation, beta-tubulin III ELISA)
Type: cell-based
Conditions: 1 μM compound + rhIGF-1 100 ng/ml, 3 days, control (only rhIGF-1) = 100%, absorbance 450 nm; for activity at 1 µM: Rattus norvegicus, 72 h, read-out: Ratio of absorbance of compound-supplemented group to control (%)
Procedure: The hippocampus and the cerebral cortex were excised from each of 3-day-old SD rats. A cell suspension was prepared therefrom using a neuron dispersion kit (Sumitomo Bakelite Co., Ltd., MB-X9901) and inoculated at concentration of 10^5 cells/well to a 96-well plate coated with type I collagen (AGC Techno Glass Co., Ltd., 4860-010). The cells were cultured in a growth medium (D-MEM/F12 containing 10% FBS and PS) at 37° C. for 4 days under 5% CO2 conditions.
After the culture, the medium was replaced by a differentiation medium (D-MEM/F12 containing PS), and rhIGF-1 (R&D Systems, 291-G1-250, final concentration: 100 ng/ml) and 1 μM compound were added thereto. The cells were further cultured for 3 days. The cultured cells were fixed in 4% paraformaldehyde-PBS (Muto Pure Chemicals Co., Ltd.), subjected to membrane permeation treatment with 0.1% Triton X-100 PBS, and blocked with Block Ace solution (DS Pharma Biomedical Co., Ltd., UK-B80). Anti-neuron-specific class III beta-tubulin Antibody (R&D Systems, MAB1195, clone Tuj-1) was diluted 1000-fold and used as a primary antibody. Anti-Mouse Ig, HRP-Linked F(ab′)2 Fragment Sheep (GE Healthcare, NA9310) was diluted 10000-fold and used as a secondary antibody. A plate washer (BIO-TEK INSTRUMENTS ELX405) was used in washing operation. TMB Microwell Peroxidase Substrate System (Kirkegaard & Perry Laboratories, 50-76-00) was used in color reaction, which was performed for 10 minutes and stopped by addition of 1 M phosphoric acid. Absorbance at 450 nm was measured using a plate reader (Labsystems Multiskan BICHROMATIC).
The rate of increase in the absorbance of the compound-supplemented group (compound+rhIGF-1) relative to that of a compound-unsupplemented group (control, only rhIGF-1) as 100% was determined in terms of % control.

In the case of `COc1ccc(N2CCOC(c3ccc(C(F)(F)F)cc3)C2)c(-c2ccc(N(C)C)cc2)n1` (single isomer, unassigned) [Example 5, 4-(6-methoxy-3-{2-[4-(trifluoromethyl)phenyl]morpholin-4-yl}pyridin-2-yl)-N,N-dimethylaniline], the “Ratio of absorbance of compound-supplemented group to control (%)” value is reported as 765%.

With `COc1ccc(N2CCOC(c3ccc(C(F)(F)F)cc3)C2)c(-c2ccc(N(C)C)cc2)n1` (single isomer, unassigned) [Example 6, 4-(6-methoxy-3-{2-[4-(trifluoromethyl)phenyl]morpholin-4-yl}pyridin-2-yl)-N,N-dimethylaniline] the “Ratio of absorbance of compound-supplemented group to control (%)” value was 134%.

In the case of `COc1ccc(N2CCOC(c3cccc(C(F)(F)F)c3)C2)c(-c2ccc(N(C)C)cc2)n1` (stereo not drawn) [Example 2, 4-(6-methoxy-3-{2-[3-(trifluoromethyl)phenyl]morpholin-4-yl}pyridin-2-yl)-N,N-dimethylaniline], the activity at 1 µM is reported as 448%.

`COc1ccc(C2CN(c3ccc(OC)nc3-c3ccc(N(C)C)cc3)CCO2)cc1` (stereo not drawn) [Example 3, 4-{6-methoxy-3-[2-(4-methoxyphenyl)morpholin-4-yl]pyridin-2-yl}-N,N-dimethylaniline] was tested, and the activity at 1 µM was 303%.

Work on `COc1ccc(N2CCOC(Cc3cccc(C(F)(F)F)c3)C2)c(-c2ccc(N(C)C)cc2)n1` (stereo not drawn) [Example 9, 4-(6-methoxy-3-{2-[3-(trifluoromethyl)benzyl]morpholin-4-yl}pyridin-2-yl)-N,N-dimethylaniline] yielded an activity at 1 µM of 321%.

For `CCOC(=O)N1CCN(c2ccc(OC)nc2-c2ccc(N(C)C)cc2)CC1c1ccc(OC)cc1` (stereo not drawn) [Example 13, Ethyl 4-{2-[4-(dimethylamino)phenyl]-6-methoxypyridin-3-yl}-2-(4-methoxyphenyl)piperazine-1-carboxylate], the activity at 1 µM was 285%.

`COc1ccc(C2CN(c3ccc(OC)nc3-c3ccc(N(C)C)cc3)CCN2)cc1` (stereo not drawn) [Example 14, 4-{6-methoxy-3-[3-(4-methoxyphenyl)piperazin-1-yl]pyridin-2-yl}-N,N-dimethylaniline] gave an activity at 1 µM of 260%.

Molecule `COc1ccc(N2CCN(c3ccc(Cl)cc3)CC2)c(-c2ccc(N(C)C)cc2)n1` [Example 24, 4-{3-[4-(4-chlorophenyl)piperazin-1-yl]-6-methoxypyridin-2-yl}-N,N-dimethylaniline] has an activity at 1 µM of 462%.

`COc1ccc(N2CCN(c3ccc(OC)c(OC)c3)CC2)c(-c2ccc(N(C)C)cc2)n1` [Example 26, 4-{3-[4-(3,4-dimethoxyphenyl)piperazin-1-yl]-6-methoxypyridin-2-yl}-N,N-dimethylaniline] was tested, and the activity at 1 µM was 259%.

Molecule `COc1ccc(CC2CN(c3ccc(OC)nc3-c3ccc(N(C)C)cc3)CCN2C)cc1` (stereo not drawn) [Example 34, 4-{6-methoxy-3-[3-(4-methoxybenzyl)-4-methylpiperazin-1-yl]pyridin-2-yl}-N,N-dimethylaniline] has an activity at 1 µM of 783%.

`COc1ccc(N2CCN(c3ccc(OC)nc3-c3ccc(OC(F)(F)F)cc3)CC2)cc1` [Example 49, 1-(4-methoxyphenyl)-4-{6-methoxy-2-[4-(trifluoromethoxy)phenyl]pyridin-3-yl}piperazine] was tested, and the activity at 1 µM was 887%.

Molecule `COc1ccc(-c2nc(OC)ccc2N2CCN(c3ccc(OC)cc3)CC2)cc1` [Example 50, 1-[6-methoxy-2-(4-methoxyphenyl)pyridin-3-yl]-4-(4-methoxyphenyl)piperazine] has an activity at 1 µM of 546%.

With `COc1ccc(N2CCN(c3ccc(OC)nc3-c3ccc(C(C)C)cc3)CC2)cc1` [Example 51, 1-{6-methoxy-2-[4-(1-methylethyl)phenyl]pyridin-3-yl}-4-(4-methoxyphenyl)piperazine] the activity at 1 µM was 856%.

Molecule `COc1ccc(N2CCN(c3ccc(OC)nc3-c3ccc(OC(C)C)cc3)CC2)cc1` [Example 52, 1-{6-methoxy-2-[4-(1-methylethoxy)phenyl]pyridin-3-yl}-4-(4-methoxyphenyl)piperazine] has an activity at 1 µM of 731%.

For `COc1ccc(N2CCN(c3ccc(OC)nc3-c3ccc4c(c3)CC(C)(C)O4)CC2)cc1` [Example 60, 1-[2-(2,2-dimethyl-2,3-dihydro-1-benzofuran-5-yl)-6-methoxypyridin-3-yl]-4-(4-methoxyphenyl)piperazine], the activity at 1 µM was 218%.

In the case of `CCOc1ccc(-c2nc(OC)ccc2N2CCN(c3ccc(OC)cc3)CC2)cc1F` [Example 62, 1-[2-(4-ethoxy-3-fluorophenyl)-6-methoxypyridin-3-yl]-4-(4-methoxyphenyl)piperazine], the activity at 1 µM is reported as 439%.

For `COc1ccc(C2(O)CCN(c3ccc(OC)nc3-c3ccc(OC(F)(F)F)cc3)CC2)cc1` [Example 75, 4-(4-methoxyphenyl)-1-{6-methoxy-2-[4-(trifluoromethoxy)phenyl]pyridin-3-yl}piperidin-4-ol], the activity at 1 µM was 249%.

Molecule `COc1ccc(N2CCCN(c3ccc(OC)nc3-c3ccc(N(C)C)cc3)CC2)cc1` [Example 85, 4-{6-methoxy-3-[4-(4-methoxyphenyl)-1,4-diazepan-1-yl]pyridin-2-yl}-N,N-dimethylaniline] has an activity at 1 µM of 385%.

`COc1ccc(N2CCCN(c3ccc(OC)nc3-c3ccc(N(C)C)cc3)CC2)c(F)c1` [Example 87, 4-{3-[4-(2-fluoro-4-methoxyphenyl)-1,4-diazepan-1-yl]-6-methoxypyridin-2-yl}-N,N-dimethylaniline] was tested, and the activity at 1 µM was 224%.

`COc1ccc(N2CCCN(c3ccc(OC)c(OC)c3)CC2)c(-c2ccc(N(C)C)cc2)n1` [Example 89, 4-{3-[4-(3,4-dimethoxyphenyl)-1,4-diazepan-1-yl]-6-methoxypyridin-2-yl}-N,N-dimethylaniline] gave an activity at 1 µM of 379%.

`COc1ccc(N2CCN(c3ccc(OC)nc3-c3ccc(N(C)C)cc3)CCC2=O)cc1` [Example 92, 1-{2-[4-(dimethylamino)phenyl]-6-methoxypyridin-3-yl}-4-(4-methoxyphenyl)-1,4-diazepan-5-one] was tested, and the activity at 1 µM was 449%.

With `COc1ccc(C2CCN(c3ccc(OC)nc3-c3ccc(N(C)C)cc3)CCN2C)cc1` (stereo not drawn) [Example 98, 4-{6-methoxy-3-[5-(4-methoxyphenyl)-4-methyl-1,4-diazepan-1-yl]pyridin-2-yl}-N,N-dimethylaniline] the activity at 1 µM was 397%.

Work on `CCOc1ccc(-c2nc(OC)ccc2N2CCC(c3ccc(OC)cc3)N(CC)CC2)cc1` (stereo not drawn) [Example 108, 1-[2-(4-ethoxyphenyl)-6-methoxypyridin-3-yl]-4-ethyl-5-(4-methoxyphenyl)-1,4-diazepane] yielded an activity at 1 µM of 773%.

For `CCOc1ccc(-c2nc(OC)ccc2N2CCN(c3ccc(OC)cc3)CC2)c(F)c1` [Example 113, 1-[2-(4-ethoxy-2-fluorophenyl)-6-methoxypyridin-3-yl]-4-(4-methoxyphenyl)piperazine], the activity at 1 µM was 717%.

`COc1ccc(N2CCN(c3ccc(OC)nc3-c3ccc(N(C)C)cc3)CC(C)C2=O)cc1` (stereo not drawn) [Example 118, 1-{2-[4-(dimethylamino)phenyl]-6-methoxypyridin-3-yl}-4-(4-methoxyphenyl)-6-methyl-1,4-diazepan-5-one] was tested, and the activity at 1 µM was 528%.

`COc1ccc(N2CCN(c3ccc(OC)nc3-c3ccc(N(C)C)cc3)CC(C)(C)C2)cc1` [Example 119, 4-{6-methoxy-3-[4-(4-methoxyphenyl)-6,6-dimethyl-1,4-diazepan-1-yl]pyridin-2-yl}-N,N-dimethylaniline] was tested, and the activity at 1 µM was 760%.

With `COc1ccc(N2CCN(c3ccc(OC)nc3-c3ccc(N(C)C)cc3)CCC2C)cc1` (stereo not drawn) [Example 134, 4-{6-methoxy-3-[4-(4-methoxyphenyl)-5-methyl-1,4-diazepan-1-yl]pyridin-2-yl}-N,N-dimethylaniline] the activity at 1 µM was 630%.
